Results on 16 molecules are retold here after patent US20250276074A1, “BRM AND BRG1 TARGETING ANTIBODY-DRUG CONJUGATES AND METHODS OF USE THEREOF” (Prelude Therapeutics Incorporated, priority 2024, published 2025).

Series [1] deals with T1, SMARCA2 (Homo sapiens, UniProt P51531). The series can be described thus: SMARCA2 HiBiT degradation assay in HeLa cells. The series is classed as cell-based. The conditions noted are these: 18 hours. On the procedure: (§1) HiBiT peptide knock-in of SMARCA2 in LgBiT expressing HEK293T cells was performed by CRISPR-mediated tagging system as described Promega. The homozygous HiBiT knock-in on c-terminus SMARCA2 was confirmed by sanger sequence. SMARCA2-HiBiT knock-in Hela monoclonal cell (CS302366) and SMARCA4-HiBiT knock-in Hela monoclonal cell (CS3023226) were purchased from Promega. The heterozygous HiBiT-knock-in was confirmed by sanger sequence in both SMARCA2-HiBiT and SMARCA4-HiBiT monoclonal cells.
T1 sequence (P51531 whole entry): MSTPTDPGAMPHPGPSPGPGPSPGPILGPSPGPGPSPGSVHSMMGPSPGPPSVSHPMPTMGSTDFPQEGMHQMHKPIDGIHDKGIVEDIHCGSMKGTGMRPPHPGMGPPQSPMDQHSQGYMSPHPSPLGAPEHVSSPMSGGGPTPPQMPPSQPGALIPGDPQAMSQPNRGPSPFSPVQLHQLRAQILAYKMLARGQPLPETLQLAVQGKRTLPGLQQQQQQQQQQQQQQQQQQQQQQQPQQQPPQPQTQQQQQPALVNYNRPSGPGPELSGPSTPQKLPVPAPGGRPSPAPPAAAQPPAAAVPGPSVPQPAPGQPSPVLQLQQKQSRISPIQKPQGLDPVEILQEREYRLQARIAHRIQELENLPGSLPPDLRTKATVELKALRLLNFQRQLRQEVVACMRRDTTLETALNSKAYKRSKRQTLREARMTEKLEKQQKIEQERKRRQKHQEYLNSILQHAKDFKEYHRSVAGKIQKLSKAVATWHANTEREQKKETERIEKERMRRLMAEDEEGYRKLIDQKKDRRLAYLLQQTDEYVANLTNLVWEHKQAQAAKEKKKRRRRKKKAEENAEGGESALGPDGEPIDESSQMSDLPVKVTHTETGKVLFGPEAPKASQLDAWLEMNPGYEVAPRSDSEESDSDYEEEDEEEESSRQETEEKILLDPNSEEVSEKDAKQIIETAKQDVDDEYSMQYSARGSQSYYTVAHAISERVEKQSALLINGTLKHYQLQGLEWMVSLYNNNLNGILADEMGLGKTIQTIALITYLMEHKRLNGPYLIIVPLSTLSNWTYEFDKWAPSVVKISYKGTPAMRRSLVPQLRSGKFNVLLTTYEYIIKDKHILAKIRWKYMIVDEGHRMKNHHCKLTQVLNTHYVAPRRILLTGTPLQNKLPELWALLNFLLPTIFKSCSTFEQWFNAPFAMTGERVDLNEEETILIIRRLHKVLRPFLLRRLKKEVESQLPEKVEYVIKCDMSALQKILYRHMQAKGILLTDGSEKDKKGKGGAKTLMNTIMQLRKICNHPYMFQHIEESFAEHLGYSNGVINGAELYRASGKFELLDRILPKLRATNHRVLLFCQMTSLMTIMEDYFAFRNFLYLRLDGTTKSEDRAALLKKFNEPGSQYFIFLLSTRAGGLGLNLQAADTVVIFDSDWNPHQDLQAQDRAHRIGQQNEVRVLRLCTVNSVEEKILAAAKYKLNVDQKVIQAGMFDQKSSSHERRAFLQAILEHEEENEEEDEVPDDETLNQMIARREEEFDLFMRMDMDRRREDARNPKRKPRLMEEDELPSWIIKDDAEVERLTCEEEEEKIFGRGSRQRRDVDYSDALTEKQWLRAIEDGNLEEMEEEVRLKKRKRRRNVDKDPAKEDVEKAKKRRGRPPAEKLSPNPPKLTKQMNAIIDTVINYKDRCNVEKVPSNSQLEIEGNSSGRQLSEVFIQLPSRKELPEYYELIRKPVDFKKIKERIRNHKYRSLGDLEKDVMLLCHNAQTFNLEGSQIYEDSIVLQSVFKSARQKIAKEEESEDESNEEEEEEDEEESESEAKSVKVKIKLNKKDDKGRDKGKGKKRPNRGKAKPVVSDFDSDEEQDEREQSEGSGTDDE
(§2) Dispense 10ul aliquot of prepared Hela-SMARCA2-HiBiT or Hela-SMARCA4-HiBiT cells (1:1 ratio of cells:Trypan Blue (#1450013, Bio-Rad)) onto cell counting slide (#145-0011, Bio-Rad) and obtain cell density and cell viability using cell counter (TC20, Bio-Rad). Remove appropriate volume of resuspended cells from culture flask to accommodate 2500 cells/well @20 μL/well. Transfer Hela-HiBiT cells to 50 mL conical (#430290, Corning). Spin down at 1000 rpm for 5 min using tabletop centrifuge (SPINCHRON 15, Beckman). Discard supernatant and resuspend cell pellet in modified EMEM (#30-2003, ATCC) cell culture media containing 10% FBS (F2422-500ML, Sigma), and 1× Penicillin/Streptomycin (200 g/L) (30-002-CI, Corning) to a cell density of 125,000 cells/mL. Dispense […] of resuspended Hela-HiBit cells per well in 384-well TC treated plate (#12-565-343, Thermo Scientific) using standard cassette (#50950372, Thermo Scientific) on Multidrop Combi (#5840310, Thermo Scientific) inside laminar flow cabinet.
(§3) The degrader compounds of Table 4 were dissolved in DMSO to make 10 mM stock and 3-fold series dilutions were further conducted keeping the highest concentration 10 μM. Dispense test compounds onto plates using digital liquid dispenser (D300E, Tecan). Incubate plates in humidified tissue culture incubator at 37° C. for 18 hours. Add […] of prepared Nano-Glo® HiBiT Lytic detection buffer (N3050, Promega) to each well of 384-well plate using small tube cassette (#24073295, Thermo Scientific) on Multidrop Combi, incubate at room temperature for 30-60 min. Read plates on microplate reader (Envision 2105, PerkinElmer) using 384 well Ultra-Sensitive luminescence mode. Raw data files and compound information reports are swept into centralized data lake and deconvoluted using automated scripts designed by TetraScience, Inc. Data analysis, curve-fitting and reporting done in Dotmatics Informatics Suite using Screening Ultra module.
Background: With HiBiT, luminescence reflects the tagged protein that the partner subunit can reach.

Series [2] in a line: Tolerability in the LNCaP CDX efficacy study. Particulars: CB17 SCID mice with LNCaP tumors.
Description: In-life evaluation was conducted using 6-8-week-old male CB17 SCID mice that were subcutaneously inoculated with LNCaP tumor cells mixed 1:1 with Matrigel. Mice were castrated 3 days prior to randomization, which was done when tumors for efficacy evaluation would reach 100 mm^3-400 mm^3.
Series [3] deals with T2, SMARCA4 (Homo sapiens, UniProt P51532). Put plainly: Single dose pharmacodynamics, SMARCA4 in LNCaP tumors by western blot. Particulars: mouse, LNCaP tumors in mice, tumors collected 1-5 days later, read-out: maximal degradation of SMARCA4. Also noted: from tissue; host or cells: LNCaP xenograft tumours from CB17 SCID mice. The series is classed as in vivo. On the technique in general: Immunoblotting shows a protein as a band on a membrane.
T2 sequence (P51532 whole entry): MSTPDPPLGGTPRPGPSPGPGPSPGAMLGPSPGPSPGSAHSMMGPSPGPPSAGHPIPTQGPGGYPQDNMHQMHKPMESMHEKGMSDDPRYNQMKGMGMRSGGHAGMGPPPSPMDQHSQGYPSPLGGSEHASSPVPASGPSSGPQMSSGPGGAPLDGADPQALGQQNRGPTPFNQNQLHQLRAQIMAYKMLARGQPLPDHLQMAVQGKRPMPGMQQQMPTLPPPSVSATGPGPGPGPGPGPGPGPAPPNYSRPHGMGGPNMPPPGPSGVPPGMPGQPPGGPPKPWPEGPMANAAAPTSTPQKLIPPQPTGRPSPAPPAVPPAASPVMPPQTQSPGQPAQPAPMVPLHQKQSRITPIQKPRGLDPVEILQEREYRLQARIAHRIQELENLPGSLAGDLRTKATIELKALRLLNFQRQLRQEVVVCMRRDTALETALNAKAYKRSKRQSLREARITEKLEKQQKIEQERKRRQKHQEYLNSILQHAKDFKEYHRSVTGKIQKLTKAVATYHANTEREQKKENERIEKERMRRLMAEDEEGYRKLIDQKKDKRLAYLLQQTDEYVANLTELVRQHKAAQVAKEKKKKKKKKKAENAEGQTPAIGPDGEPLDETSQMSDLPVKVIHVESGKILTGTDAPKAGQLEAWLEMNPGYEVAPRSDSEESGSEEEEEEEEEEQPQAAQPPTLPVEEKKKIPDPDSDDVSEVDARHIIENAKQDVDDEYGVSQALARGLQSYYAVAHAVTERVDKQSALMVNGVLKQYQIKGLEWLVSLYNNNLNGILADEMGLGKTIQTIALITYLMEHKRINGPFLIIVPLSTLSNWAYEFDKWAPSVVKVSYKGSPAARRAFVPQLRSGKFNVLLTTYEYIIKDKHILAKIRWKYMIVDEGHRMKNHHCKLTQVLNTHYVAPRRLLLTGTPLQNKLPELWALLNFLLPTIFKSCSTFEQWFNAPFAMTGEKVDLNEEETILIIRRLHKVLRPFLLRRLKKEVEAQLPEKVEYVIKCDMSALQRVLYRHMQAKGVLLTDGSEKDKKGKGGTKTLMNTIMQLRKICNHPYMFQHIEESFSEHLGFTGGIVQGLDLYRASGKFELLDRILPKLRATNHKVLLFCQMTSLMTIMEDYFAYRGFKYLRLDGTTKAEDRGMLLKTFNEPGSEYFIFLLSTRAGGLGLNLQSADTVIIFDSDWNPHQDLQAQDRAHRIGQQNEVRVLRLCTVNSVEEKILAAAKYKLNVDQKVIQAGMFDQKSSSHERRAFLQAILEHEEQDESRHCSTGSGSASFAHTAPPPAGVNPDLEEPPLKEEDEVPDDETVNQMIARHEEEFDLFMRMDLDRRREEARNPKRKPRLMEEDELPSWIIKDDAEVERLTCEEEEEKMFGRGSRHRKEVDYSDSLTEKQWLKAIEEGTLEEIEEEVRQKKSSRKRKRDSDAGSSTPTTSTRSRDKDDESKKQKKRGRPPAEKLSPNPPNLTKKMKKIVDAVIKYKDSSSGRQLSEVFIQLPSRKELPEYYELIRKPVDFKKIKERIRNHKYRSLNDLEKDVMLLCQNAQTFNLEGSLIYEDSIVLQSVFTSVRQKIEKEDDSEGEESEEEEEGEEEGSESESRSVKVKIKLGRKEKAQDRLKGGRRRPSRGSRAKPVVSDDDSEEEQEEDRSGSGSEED
Description: (§4) In-life evaluation was conducted using 6-8-week-old male CB17 SCID mice that were subcutaneously inoculated with LNCaP tumor cells mixed 1:1 with Matrigel. Mice were castrated 3 days prior to randomization, which was done when tumors for efficacy evaluation would reach 100 mm^3-400 mm^3. […] Tumors were subsequently homogenized, and proteins were extracted before evaluating SMARCA2 and SMARCA4 expression by western blot.

The subject of a further series is PSMA negative PC3 tumors. Put plainly: Tumor growth inhibition in PSMA negative PC3 tumors, weekly administration. The conditions noted are these: FIGS. 3A-3B. Format: in vivo, mouse.
The target in series [4] is T2, SMARCA4. Put plainly: SMARCA4 HiBiT degradation assay in HeLa cells. The series is classed as cell-based. On the set-up: SMARCA4-HiBiT knock-in Hela monoclonal cell (CS3023226) were purchased from Promega; host or cells: HeLa SMARCA4-HiBiT knock-in monoclonal cells (heterozygous). The conditions noted are these: 18 hours; for Dmax: HeLa. As to the method:
as §1, §2, §3

The target of series [5] is T1, SMARCA2. Put plainly: Single dose pharmacodynamics, SMARCA2 in LNCaP tumors by western blot. Format: in vivo. Also noted: from tissue; host or cells: LNCaP xenograft tumours from CB17 SCID mice. The conditions noted are these: mouse, LNCaP tumors in mice, tumors collected 1-5 days later, read-out: maximal degradation of SMARCA2.
Description: as §4
Series [6] in a line: Body weight and survival of mice in the PC3 tumor study. The series is classed as in vivo, mouse. The conditions noted are these: weekly administration, FIGS. 3A-3B.
The subject of series [7] is PSMA+ prostate cancer CDX (LNCaP). The series can be described thus: Anti-tumor efficacy in PSMA+ prostate cancer CDX (LNCaP). Particulars: castrated male CB17 SCID mice, 10 mg/kg s.c. Q3D, day 21. Format: in vivo.
Description: as §4
Series [8] deals with SMARCA4 mutated cancer cells. Particulars: Vangamudi et al. Cancer Res 2015; cited from earlier work.
[9] abbreviates: iv, single dose 20 mg/kg i.v. infusion.

Structures are written as SMILES.

The term DC50 denotes the concentration at which degradation of the target reaches its halfway point. For the molecule `C[C@]12CNc3nnc(-c4ccccc4O)cc3N1C[C@H](Oc1ccc(CN3CCN(c4ccc5c(c4)C(=O)N([C@H]4CCC(=O)NC4=O)C5)CC3)cn1)C2` [Compound 1], at SMARCA2 [1], the DC50 was less than 0.1 nM and the Dmax is greater than 90%. In series [2] (20 mg/kg i.v. infusion QW), the body weight loss result was “minimal” and the mouse deaths result is “no mouse deaths”. On SMARCA4 [3] (setting [9]), the Dmax at 20 mg/kg stood at 83%. Also, the tumor growth inhibition entry in the series with PSMA negative PC3 tumors is reported as “did not induce significant tumor growth inhibition”. Moreover, on SMARCA4 [4], the DC50 lay in the range of 0.1 to 1 nM and the Dmax was greater than 90%. The Dmax at 20 mg/kg at SMARCA2 [5] (setting [9]) is 98%.

On SMARCA2 [1], `C[C@]12CNc3nnc(-c4ccccc4O)cc3N1C[C@H](Oc1ncc(CN3CCN(c4ccc5c(c4)C(=O)N([C@H]4CCC(=O)NC4=O)C5)CC3)cc1F)C2` [Compound 2] gave a half-maximal degradation concentration (DC50) of 0.1 to 1 nM and a Dmax greater than 90%. In addition, at SMARCA4 [4], the DC50 is 0.1 to 1 nM and the Dmax was greater than 90%.

For the molecule `Cc1ncsc1-c1ccc([C@H](C)NC(=O)[C@@H]2C[C@@H](O)CN2C(=O)[C@@H](c2cc(OCCN3CCC(CN4CCN5c6cc(-c7ccccc7O)nnc6NC[C@H]5C4)CC3)no2)C(C)C)cc1` [Compound 2], in series [6], the “mouse body weight loss and death” value was “caused mouse body weight loss and death”. In addition, the “tumor growth inhibition (TGI)” value in series [7] was found to be 93%. Besides, the “mice died during the study” value in [2] (10 mg/kg s.c. Q3D) stood at 83.3%. The Dmax at 10 mg/kg at SMARCA4 [3] (sc, single dose 10 mg/kg s.c.) was 86%; at SMARCA2 [5] (sc, single dose 10 mg/kg s.c.), 99%. In addition, the tumor growth inhibition result with PSMA negative PC3 tumors is “efficacious”.

On SMARCA2 [1], `Cc1cc(CN2CCN(c3ccc4c(c3)C(=O)N([C@H]3CCC(=O)NC3=O)C4)CC2)cnc1O[C@H]1CN2c3cc(-c4ccccc4O)nnc3NC[C@]2(C)C1` [Compound 3] yielded a DC50 of 0.1 to 1 nM and a Dmax greater than 90%. Besides, on SMARCA4 [4], the DC50 was 0.1 to 1 nM and the “SMARCA4 Dmax” value was “B (50%<Dmax≤90%)”.

Consider `Cc1cc(CN2CCN(c3ccc4c(c3)C(=O)N([C@H]3CCC(=O)NC3=O)C4)CC2)cnc1O[C@H]1CN2c3cc(-c4ccccc4O)nnc3NC[C@]2(C)C1` [Compound 4], for which, on SMARCA2 [1], the DC50 is less than 0.1 nM and the “SMARCA2 Dmax” value is on record as “A (Dmax>90%)”. At SMARCA4 [4], the DC50 lay within 0.1 to 1 nM and the “SMARCA4 Dmax” value was “A (Dmax>90%)”.

Regarding `Cc1cc(C(=O)N2CCN(c3ccc4c(c3)C(=O)N([C@H]3CCC(=O)NC3=O)C4)CC2)cnc1O[C@H]1CN2c3cc(-c4ccccc4O)nnc3NC[C@]2(C)C1` [Compound 5], the DC50 on SMARCA2 [1] was less than 0.1 nM; at SMARCA4 [4], 0.1 to 1 nM. Besides, the figures for the Dmax at SMARCA2 [1] and at SMARCA4 [4] were greater than 90% and 50 to 90%, respectively.

At SMARCA2 [1], `CC[C@]12CNc3nnc(-c4ccccc4O)cc3N1C[C@H](Oc1ncc(CN3CCN(c4ccc5c(c4)C(=O)N([C@H]4CCC(=O)NC4=O)C5)CC3)cc1C)C2` [Compound 6] displayed a DC50 of less than 0.1 nM and a Dmax greater than 90%. On SMARCA4 [4], this molecule came in with a DC50 of less than 0.1 nM and a Dmax greater than 90%.

In the case of `CC[C@]12CNc3nnc(-c4ccccc4O)cc3N1C[C@H](Oc1ncc(C(=O)N3CCN(c4ccc5c(c4)C(=O)N([C@H]4CCC(=O)NC4=O)C5)CC3)cc1C)C2` [Compound 7], at SMARCA2 [1], the DC50 is less than 0.1 nM and the Dmax is greater than 90%. On SMARCA4 [4], this molecule gave a DC50 of 0.1 to 1 nM and a Dmax of 50 to 90%.

With `CC[C@]12CNc3nnc(-c4ccccc4O)cc3N1C[C@H](Oc1ncc(CN3CCN(c4ccc5c(c4)C(=O)N([C@H]4CCC(=O)NC4=O)C5)CC3)nc1C)C2` [Compound 8], at SMARCA2 [1], the DC50 is less than 0.1 nM and the Dmax was greater than 90%. At SMARCA4 [4], the DC50 was in the range of 0.1 to 1 nM and the Dmax is greater than 90%.

At SMARCA2 [1], `CC[C@]12CNc3nnc(-c4ccccc4O)cc3N1C[C@H](Oc1ccc(CN3CCN(c4ccc5c(c4)C(=O)N([C@H]4CCC(=O)NC4=O)C5)CC3)cn1)C2` [Compound 9] came in with a DC50 of less than 0.1 nM and a Dmax greater than 90%. At SMARCA4 [4], this molecule registered a DC50 of 0.1 to 1 nM and a Dmax greater than 90%.

On SMARCA2 [1], `CC[C@]12CNc3nnc(-c4ccccc4O)cc3N1C[C@H](Oc1ccc(CN3CCC(c4ccc5c(c4)C(=O)N([C@H]4CCC(=O)NC4=O)C5)CC3)cn1)C2` [Compound 10] returned a 50% degradation concentration (DC50) of 0.1 to 1 nM and a Dmax greater than 90%. Also, on SMARCA4 [4], the DC50 fell in the range of 0.1 to 1 nM and the Dmax is 50 to 90%.

For `Cc1ncsc1-c1ccc([C@H](C)NC(=O)[C@@H]2C[C@@H](O)CN2C(=O)[C@@H](c2cc(OCCN3CCC(N4CCN5c6cc(-c7ccccc7O)nnc6N[C@@H](C)[C@@H]5C4)CC3)no2)C(C)C)cc1` [Compound 11], the figures for the DC50 on SMARCA2 [1] and on SMARCA4 [4] were 0.1 to 1 nM and 1 to 10 nM, respectively. In addition, the Dmax at SMARCA2 [1] and on SMARCA4 [4] was greater than 90% in each case.

At SMARCA2 [1], `Cc1ncsc1-c1ccc([C@H](C)NC(=O)[C@@H]2C[C@@H](O)CN2C(=O)[C@@H](c2cc(OCCN3CCC(N4CCN5c6cc(-c7ccccc7O)nnc6N[C@H](C)[C@@H]5C4)CC3)no2)C(C)C)cc1` [Compound 12] yielded a half-maximal degradation concentration (DC50) of 1 to 10 nM and a Dmax greater than 90%. On SMARCA4 [4], the DC50 was 1 to 10 nM and the Dmax was greater than 90%.

As to `Cc1ncsc1-c1ccc([C@H](C)NC(=O)[C@@H]2C[C@@H](O)CN2C(=O)[C@@H](c2cc(OCCN3CCC(N4CCN5c6cc(-c7ccccc7O)nnc6N[C@H](C)[C@H]5C4)CC3)no2)C(C)C)cc1` [Compound 13], at SMARCA2 [1], the DC50 lay in the range of 0.1 to 1 nM and the Dmax is greater than 90%. Further, on SMARCA4 [4], the DC50 lay in the range of 1 to 10 nM and the Dmax is greater than 90%.

Turning to `Cc1ncsc1-c1ccc([C@H](C)NC(=O)[C@@H]2C[C@@H](O)CN2C(=O)[C@@H](c2cc(OCCN3CCC(N4CCN5c6cc(-c7ccccc7O)nnc6N[C@@H](C)[C@H]5C4)CC3)no2)C(C)C)cc1` [Compound 14], the DC50 on SMARCA2 [1] and at SMARCA4 [4] was 1 to 10 nM throughout. Moreover, the Dmax on SMARCA2 [1] and on SMARCA4 [4] was 50 to 90% each time.

For `O=C(/C=C/N1C[C@H]2C[C@@H]1CN2c1ccccn1)c1ccccc1O` [PFI-3], in series [8], the “effects on cell proliferation inhibition” value was “none to minor effects”.
